The results in this text go back to patent US11352334B2, “3-(5-chloro-2-oxobenzo[d]oxazol-3(2H)-yl) propanoic acid derivatives as KMO inhibitors” (THE UNIVERSITY COURT OF THE UNIVERSITY OF EDINBURGH, priority 2013, dated 2022).

For this experiment, the target named is T1, human KMO (Homo sapiens, UniProt O15229).
T1 construct: Full length human KMO was amplified by PCR from pcDNA5/FRT/V5-His-TOPO/hKMO; made in house; host or cells: Spodoptera frugiperda Sf9 cells (baculovirus); purified membrane fraction used
T1 sequence (O15229 whole entry): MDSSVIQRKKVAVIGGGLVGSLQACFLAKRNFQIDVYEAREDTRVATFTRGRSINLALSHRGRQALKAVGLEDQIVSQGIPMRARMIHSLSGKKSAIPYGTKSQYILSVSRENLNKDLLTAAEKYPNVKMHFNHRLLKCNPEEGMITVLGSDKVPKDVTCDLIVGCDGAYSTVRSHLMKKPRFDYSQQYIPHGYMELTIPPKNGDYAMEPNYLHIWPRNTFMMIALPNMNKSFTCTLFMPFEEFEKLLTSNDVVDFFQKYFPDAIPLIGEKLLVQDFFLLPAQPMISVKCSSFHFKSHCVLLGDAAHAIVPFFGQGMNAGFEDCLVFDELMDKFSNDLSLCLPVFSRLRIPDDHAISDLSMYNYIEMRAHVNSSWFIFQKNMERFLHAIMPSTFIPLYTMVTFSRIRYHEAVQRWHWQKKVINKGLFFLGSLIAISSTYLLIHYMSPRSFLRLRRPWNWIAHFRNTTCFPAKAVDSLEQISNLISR
Briefly: KMO MS Rapidfire assay. It is filed as biochemical. To be noted: human KMO-membranes from Sf9 cells, 10 μM Kynurenine, 200 μM NADPH, 3-HK detected by MS. The method, then:
pFastbac1 GST-KMO was transposed into the baculovirus genome using the BAC-to-BAC technology (Invitrogen) and bacmid DNA was prepared and transfected into Spodoptera frugiperda (Sf9) cells using Cellfectin II (Invitrogen).
Cells were harvested after 48 hours and disrupted by blending in 50 mM Hepes, pH 7.4, 1 mM EDTA buffer containing protease inhibitors. A low speed spin (400 g) was used to remove cell debris, followed by a high speed spin (75 000 g) to pellet the membranes. The membranes were purified in a discontinuous sucrose density gradient by re-suspending in 10% (w/v) sucrose and layering over 40% (w/v) sucrose, both in the above buffer. This was centrifuged at 150 000 g and the purified membranes were taken from the interface, collected by centrifugation at 100 000 g, resuspended in buffer and aliquoted for storage at −80° C.
11 point, 3-fold serial dilutions of test compounds were prepared in DMSO and 100 nL of these solutions were dispensed into 384-well V-base polypropylene plates (Greiner Bio-one, Stonehouse, UK) using an Echo 555 acoustic dispenser (Labcyte, Sunnyvale, Calif.). This gave a final assay concentration range between 100 μM and 1.7 nM in 10 μL final assay volume (see below). 100 nL DMSO was dispensed into columns 6 and 18 for high and low controls, respectively, with prior inactivation of the enzyme in column 18 by pre-dispense of 30 μL of 0.5% (v/v) TFA. […]

Take `Cc1cc2oc(=O)n(CCC(=O)O)c2cc1Cl` [Example 1, 3-(5-Chloro-6-methyl-2-oxobenzo[d]oxazol-3(2H)-yl)propanoic Acid]: the “median pIC50” value is on record as 7.9.
